According to patent publication US9133219B2, “Bicyclic antibiotics” (Basilea Pharmaceutica AG, priority 2009, dated 2015):
≈ marks a conversion by molar mass, not a printed value.

Columns and labels:
Assay type in all cases: cell-based
[1] = tested on: Staphylococcus aureus and/or Staphylococcus epidermidis; assay: MIC summary statement, staphylococci; conditions: generally, for Staphylococcus aureus and/or Staphylococcus epidermidis
Experimental: (§1) Anti-Microbial Activity Assay.
(§2) The antibacterial activity of compounds is determined by the minimal inhibitory concentration (MIC) method. MICs for all bacteria except pneumococci and Haemophilus influenzae are obtained by broth microdilution with cation-adjusted Mueller-Hinton broth (CAMHB; BBL), according to CLSI guidelines (National Committee for Clinical Laboratory Standards. 2003. Methods for dilution antimicrobial susceptibility tests for bacteria that grow aerobically, 5th ed.; approved standard M7-A6. National Committee for Clinical Laboratory Standards, Wayne, Pa.), with the following modifications: (i) for pneumococci CAMHB is supplemented with 5% (^v/v) horse serum; (ii) for Haemophilus influenzae CAMHB is supplemented with 5% (^v/v) Fildes enrichment (BBL) (Pankuch, G. A., Hoellman, D. B., Lin, G., Bajaksouzian, S., Jacobs, M. R., and Appelbaum, P. C. 1998. Activity of HMR 3647 compared to those of five agents against Haemophilus influenzae and Moraxella catarrhalis by MIC determination and time-kill assay. Antimicrob. Agents Chemother. 42:3032-3034). Microtiter plates are incubated at 35° C. in ambient air for 20 to 24 h, then inspected using an illuminated microtiter plate reader fitted with a magnifying mirror (MIC 2000; Cooke Laboratory Products, Alexandria, Va.). Compounds of the present invention are tested against several bacteria strains comprising some Acinetobacter baumannii, Enterococcus faecalis, Enterococcus faecitan, Escherichia coli, Haemophilus influenzae, Klebsiella pneumoniae, Pseudomonas aeruginosa, Staphylococcus aureus, Staphylococcus epidermidis and Streptococcus pneumoniae.

[2] = tested on: Staphylococcus aureus and/or Staphylococcus epidermidis and/or Streptococcus pneumoniae; assay: MIC summary statement, staphylococci and pneumococci; conditions: generally, for Staphylococcus aureus and/or Staphylococcus epidermidis and/or Streptococcus pneumoniae
Experimental: as §1, §2

[3] = tested on: Streptococcus pneumoniae; assay: Anti-microbial activity assay, MIC by broth microdilution (CAMHB with 5% horse serum); conditions: Streptococcus pneumoniae; strain ATCC49619; CAMHB with 5% horse serum; read-out: MIC Streptococcus pneumoniae ATCC49619
Experimental: as §1, §2

[4] = tested on: Staphylococcus epidermidis; assay: Anti-microbial activity assay, MIC by broth microdilution; conditions: Staphylococcus epidermidis; strain ATCC14990
Experimental: as §1, §2

[5] = tested on: Staphylococcus aureus; assay: as above; conditions: Staphylococcus aureus; strain ATCC29213; read-out: MIC Staphylococcus aureus ATCC29213
Experimental: as §1, §2

[6] = tested on: Escherichia coli; assay: as above; conditions: Escherichia coli; strain UB1005; read-out: MIC Escherichia coli UB1005
Experimental: as §1, §2

## COc1ccc2ncc(OCC[C@H]3CC[C@H](NC(=O)c4ccc5c(c4)NC(=O)CS5)CC3)cc2n1 [Example 2, 3-oxo-3,4-dihydro-2H-benzo[1,4]thiazine-6-carboxylic acid {trans-4-[2-(6-methoxy-[1,5]naphthyridin-3-yloxy)-ethyl]-cyclohexyl}-amide]
[1]
  MIC: ≤ 2 µg/mL
[2]
  MIC: ≤ 2 µg/mL
[3]
  MIC: ≤ 2 µg/mL
[4]
  MIC: ≤ 2 µg/mL
[5]
  MIC: ≤ 2 µg/mL
[6]
  MIC: > 32 µg/mL

## COc1ccc2ncc(SCCN3CCC(N(C)C(=O)c4ccc5c(c4)NC(=O)CS5)CC3)nc2c1 [Example 52, 3-oxo-3,4-dihydro-2H-benzo[1,4]thiazine-6-carboxylic acid {1-[2-(7-methoxy-quinoxalin-2-ylsulfanyl)-ethyl]-piperidin-4-yl}-methyl-amide]
[1]
  MIC: ≤ 2 µg/mL
[2]
  MIC: ≤ 2 µg/mL
[3]
  MIC: ≤ 2 µg/mL
[4]
  MIC: ≤ 2 µg/mL
[5]
  MIC: ≤ 2 µg/mL
[6]
  MIC: 16 µg/mL (≈ 30.6 µM)

## COc1ccc2ncc(SCCN3CCC(NC(=O)c4ccc5c(c4)OCCO5)CC3)nc2c1 [Example 39, 2,3-dihydro-benzo[1,4]dioxine-6-carboxylic acid {1-[2-(7-methoxy-quinoxalin-2-ylsulfanyl)-ethyl]-piperidin-4-yl}-amide]
[1]
  MIC: ≤ 2 µg/mL
[2]
  MIC: ≤ 2 µg/mL
[3]
  MIC: ≤ 2 µg/mL
[4]
  MIC: ≤ 2 µg/mL
[5]
  MIC: ≤ 2 µg/mL
[6]
  MIC: ≥ 32 µg/mL

## COc1ccc2ncc(SCCN3CCC(NC(=O)c4cc(-c5cccs5)on4)CC3)nc2c1 [Example 35, 5-thiophen-2-yl-isoxazole-3-carboxylic acid {1-[2-(7-methoxy-quinoxalin-2-ylsulfanyl)-ethyl]-piperidin-4-yl}-amide]
[1]
  MIC: ≤ 2 µg/mL
[2]
  MIC: ≤ 2 µg/mL
[3]
  MIC: ≤ 2 µg/mL
[4]
  MIC: ≤ 2 µg/mL
[5]
  MIC: ≤ 2 µg/mL
[6]
  MIC: > 32 µg/mL

## COc1ccc2ncc(SCCN3CCC(NCCSc4cccs4)CC3)nc2c1 [Example 38, {1-[2-(7-methoxy-quinoxalin-2-ylsulfanyl)-ethyl]-piperidin-4-yl}-[2-(thiophen-2-ylsulfanyl)-ethyl]-amine]
[1]
  MIC: ≤ 2 µg/mL
[2]
  MIC: ≤ 2 µg/mL
[3]
  MIC: ≤ 2 µg/mL
[4]
  MIC: ≤ 2 µg/mL
[5]
  MIC: ≤ 2 µg/mL
[6]
  MIC: 16 µg/mL (≈ 34.7 µM)

## COc1ccc2ccc(OCCN3CCC(NC(=O)c4ccc5c(n4)NC(=O)CS5)CC3)nc2c1 [Example 17, 3-oxo-3,4-dihydro-2H-pyrido[3,2-b][1,4]thiazine-6-carboxylic acid {1-[2-(7-methoxy-quinolin-2-yloxy)-ethyl]-piperidin-4-yl}-amide]
[1]
  MIC: ≤ 2 µg/mL
[3]
  MIC: 16 µg/mL (≈ 32.4 µM)
[4]
  MIC: 4 µg/mL (≈ 8.1 µM)
[5]
  MIC: ≤ 2 µg/mL
[6]
  MIC: > 32 µg/mL

## COc1ccc2ncc(SCCN3CCC(N(C)Cc4ccc5c(c4)OCCO5)CC3)nc2c1 [Example 43, (2,3-dihydro-benzo[1,4]dioxin-6-ylmethyl)-{1-[2-(7-methoxy-quinoxalin-2-ylsulfanyl)-ethyl]-piperidin-4-yl}-methyl-amine]
[1]
  MIC: ≤ 2 µg/mL
[2]
  MIC: ≤ 2 µg/mL
[3]
  MIC: ≤ 2 µg/mL
[4]
  MIC: ≤ 2 µg/mL
[5]
  MIC: ≤ 2 µg/mL
[6]
  MIC: 16 µg/mL (≈ 33.3 µM)

## COc1ccc2ncc(OCCN3CCC(NC(=O)c4ccc5c(c4)NC(=O)CS5)CC3)nc2c1 [Example 1, 3-oxo-3,4-dihydro-2H-benzo[1,4]thiazine-6-carboxylic acid {1-[2-(7-methoxy-quinoxalin-2-yloxy)-ethyl]-piperidin-4-yl}-amide]
[1]
  MIC: ≤ 2 µg/mL
[3]
  MIC: 4 µg/mL (≈ 8.1 µM)
[4]
  MIC: ≤ 2 µg/mL
[5]
  MIC: ≤ 2 µg/mL
[6]
  MIC: 8 µg/mL (≈ 16.2 µM)

## COc1ccc2ncc(C(=O)OC[C@H]3CC[C@H](NC(=O)c4ccc5c(n4)NC(=O)CO5)CC3)cc2n1 [Example 30, 6-methoxy-[1,5]naphthyridine-3-carboxylic acid trans-4-[(3-oxo-3,4-dihydro-2H-pyrido[3,2-b][1,4]oxazine-6-carbonyl)-amino]-cyclohexylmethyl ester]
[1]
  MIC: ≤ 2 µg/mL
[3]
  MIC: > 32 µg/mL
[4]
  MIC: 4 µg/mL (≈ 8.14 µM)
[5]
  MIC: ≤ 2 µg/mL
[6]
  MIC: > 32 µg/mL

## COc1ccc2ncc(C(=O)OC[C@H]3CC[C@H](NCc4ccc5c(c4)OCCO5)CC3)cc2n1 [Example 29, 6-methoxy-[1,5]naphthyridine-3-carboxylic acid trans-4-[(2,3-dihydro-benzo[1,4]dioxin-6-ylmethyl)-amino]-cyclohexylmethyl ester]
[1]
  MIC: ≤ 2 µg/mL
[3]
  MIC: 4 µg/mL (≈ 8.63 µM)
[4]
  MIC: ≤ 2 µg/mL
[5]
  MIC: ≤ 2 µg/mL
[6]
  MIC: > 32 µg/mL

## COc1ccc2ncc(OCCN3CCC(NC(=O)c4ccc5c(n4)NC(=O)CS5)CC3)nc2c1 [Example 20, 3-oxo-3,4-dihydro-2H-pyrido[3,2-b][1,4]thiazine-6-carboxylic acid {1-[2-(7-methoxy-quinoxalin-2-yloxy)-ethyl]-piperidin-4-yl}-amide]
[1]
  MIC: ≤ 2 µg/mL
[3]
  MIC: > 32 µg/mL
[4]
  MIC: ≤ 2 µg/mL
[5]
  MIC: ≤ 2 µg/mL
[6]
  MIC: > 32 µg/mL

## COc1ccc2ncc(SCCN3CCC(NC(=O)c4nc5c(cc4Cl)SCC(=O)N5)CC3)cc2c1 [Example 56, 7-chloro-3-oxo-3,4-dihydro-2H-pyrido[3,2-b][1,4]thiazine-6-carboxylic acid {1-[2-(6-methoxy-quinolin-3-ylsulfanyl)-ethyl]-piperidin-4-yl}-amide]
[1]
  MIC: ≤ 2 µg/mL
[3]
  MIC: 16 µg/mL (≈ 29.4 µM)
[4]
  MIC: 4 µg/mL (≈ 7.35 µM)
[5]
  MIC: ≤ 2 µg/mL
[6]
  MIC: 4 µg/mL (≈ 7.35 µM)

## COc1ccc2ncc(OCCN3CCC(NC(=O)c4cc5c(cc4Cl)SCC(=O)N5)CC3)nc2c1 [Example 15, 7-chloro-3-oxo-3,4-dihydro-2H-benzo[1,4]thiazine-6-carboxylic acid {1-[2-(7-methoxy-quinoxalin-2-yloxy)-ethyl]-piperidin-4-yl}-amide]
[1]
  MIC: ≤ 2 µg/mL
[3]
  MIC: 8 µg/mL (≈ 15.2 µM)
[4]
  MIC: ≤ 2 µg/mL
[5]
  MIC: ≤ 2 µg/mL
[6]
  MIC: 4 µg/mL (≈ 7.58 µM)

## O=C1CSc2ccc(C(=O)N[C@H]3CC[C@H](CCOc4cnc5ccc(F)cc5n4)CC3)cc2N1 [Example 7, 3-oxo-3,4-dihydro-2H-benzo[1,4]thiazine-6-carboxylic acid {trans-4-[2-(7-fluoro-quinoxalin-2-yloxy)-ethyl]-cyclohexyl}-amide]
[1]
  MIC: ≤ 2 µg/mL
[3]
  MIC: > 32 µg/mL
[4]
  MIC: > 32 µg/mL
[5]
  MIC: ≤ 2 µg/mL
[6]
  MIC: > 32 µg/mL

## COc1ccc2ncc(OCCCN3CC(NC(=O)c4ccc5c(c4)NC(=O)CS5)C3)nc2c1 [Example 8, 3-oxo-3,4-dihydro-2H-benzo[1,4]thiazine-6-carboxylic acid {1-[3-(7-methoxy-quinoxalin-2-yloxy)-propyl]-azetidin-3-yl}-amide]
[1]
  MIC: ≤ 2 µg/mL
[3]
  MIC: 16 µg/mL (≈ 33.4 µM)
[4]
  MIC: 4 µg/mL (≈ 8.34 µM)
[5]
  MIC: ≤ 2 µg/mL
[6]
  MIC: 16 µg/mL (≈ 33.4 µM)

## COc1ccc2ncc(OCC[C@H]3CC[C@H](NC(=O)c4ccc5c(c4)NC(=O)CO5)CC3)cc2n1 [Example 6, 3-oxo-3,4-dihydro-2H-benzo[1,4]oxazine-6-carboxylic acid {trans-4-[2-(6-methoxy-[1,5]naphthyridin-3-yloxy)-ethyl]-cyclohexyl}-amide]
[1]
  MIC: ≤ 2 µg/mL
[3]
  MIC: 4 µg/mL (≈ 8.39 µM)
[4]
  MIC: ≤ 2 µg/mL
[5]
  MIC: ≤ 2 µg/mL
[6]
  MIC: > 32 µg/mL

## COc1ccc2ncc(OCCN3CCC(NC(=O)c4cc5c(cc4Cl)SCC(=O)N5)CC3)cc2n1 [Example 16, 7-chloro-3-oxo-3,4-dihydro-2H-benzo[1,4]thiazine-6-carboxylic acid {1-[2-(6-methoxy-[1,5]naphthyridin-3-yloxy)-ethyl]-piperidin-4-yl}-amide]
[1]
  MIC: ≤ 2 µg/mL
[3]
  MIC: 8 µg/mL (≈ 15.2 µM)
[4]
  MIC: 4 µg/mL (≈ 7.58 µM)
[5]
  MIC: ≤ 2 µg/mL
[6]
  MIC: 8 µg/mL (≈ 15.2 µM)

## COc1cnc2ccc(OCCN3CCC(NC(=O)c4ccc5c(c4)NC(=O)CS5)CC3)nc2c1 [Example 18, 3-oxo-3,4-dihydro-2H-benzo[1,4]thiazine-6-carboxylic acid {1-[2-(7-methoxy-[1,5]naphthyridin-2-yloxy)-ethyl]-piperidin-4-yl}-amide]
[1]
  MIC: ≤ 2 µg/mL
[3]
  MIC: 4 µg/mL (≈ 8.1 µM)
[4]
  MIC: ≤ 2 µg/mL
[5]
  MIC: ≤ 2 µg/mL
[6]
  MIC: 8 µg/mL (≈ 16.2 µM)

## COc1ccc2ncc(OCC[C@H]3CC[C@H](NC(=O)c4ccc5c(n4)NC(=O)CO5)CC3)cc2n1 [Example 3, 3-oxo-3,4-dihydro-2H-pyrido[3,2-b][1,4]oxazine-6-carboxylic acid {trans-4-[2-(6-methoxy-[1,5]naphthyridin-3-yloxy)-ethyl]-cyclohexyl}-amide]
[1]
  MIC: ≤ 2 µg/mL
[3]
  MIC: 16 µg/mL (≈ 33.5 µM)
[4]
  MIC: ≤ 2 µg/mL
[5]
  MIC: ≤ 2 µg/mL
[6]
  MIC: > 32 µg/mL

## COc1ccc2ncc(C(=O)OC[C@H]3CC[C@H](NCCSc4cccs4)CC3)cc2n1 [Example 31, 6-methoxy-[1,5]naphthyridine-3-carboxylic acid trans-4-[2-(thiophen-2-ylsulfanyl)-ethylamino]-cyclohexylmethyl ester]
[1]
  MIC: ≤ 2 µg/mL
[3]
  MIC: 8 µg/mL (≈ 17.5 µM)
[4]
  MIC: 4 µg/mL (≈ 8.74 µM)
[5]
  MIC: ≤ 2 µg/mL
[6]
  MIC: > 32 µg/mL
